Experiments:
[1] = target: T1, Carbonic anhydrase (Candida albicans (strain SC5314 / ATCC MYA-2876) (Yeast), UniProt Q5AJ71); assay: inhibition of Candida albicans recombinant Nce103 after 15 mins by stopped-flow CO2 hydration assay
T1 sequence (Q5AJ71 whole entry): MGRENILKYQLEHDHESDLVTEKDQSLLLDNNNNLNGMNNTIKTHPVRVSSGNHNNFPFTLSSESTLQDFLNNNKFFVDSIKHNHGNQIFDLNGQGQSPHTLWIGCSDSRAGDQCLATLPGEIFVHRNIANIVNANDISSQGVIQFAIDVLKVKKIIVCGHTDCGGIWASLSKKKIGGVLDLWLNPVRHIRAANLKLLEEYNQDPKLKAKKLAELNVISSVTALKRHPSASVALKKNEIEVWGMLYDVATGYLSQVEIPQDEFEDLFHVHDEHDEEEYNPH

[2] = inhibition of Cryptococcus neoformans recombinant Can2 after 15 mins by stopped-flow CO2 hydration assay
[3] = target: T2, Carbonic anhydrase (Candida albicans (strain SC5314 / ATCC MYA-2876) (Yeast)) (UniProt Q5AJ71); assay: Ratio of compound to acetazolamide activity for inhibition of Candida albicans recombinant Nce103
T2 sequence (whole entry): T1 sequence (Q5AJ71 whole entry)

[4] = Selectivity ratio of IC50 for human CA2 to IC50 for Cryptococcus neoformans Can2
[5] = Selectivity ratio of IC50 for human CA1 to IC50 for Cryptococcus neoformans Can2

| Structure (SMILES) | Ki [1] | Ki [2] | Ratio [3] | Ratio IC50 [4] | Ratio IC50 [5] |
| --- | --- | --- | --- | --- | --- |
| Cc1cc(C)[n+](NC(=O)c2[nH]c3ccc(S(N)(=O)=O)cc3c2-c2ccc(Br)cc2)c(C)c1.[O-][Cl+3]([O-])([O-])[O-] | 53 nM | 10.9 nM | – | – | – |
| Cc1ccc(-c2c(C(=O)N[n+]3c(C)cc(C)cc3C)[nH]c3ccc(S(N)(=O)=O)cc23)cc1.[O-][Cl+3]([O-])([O-])[O-] | 41 nM | 5.9 nM | – | – | – |
| NNC(=O)c1[nH]c2ccc(S(N)(=O)=O)cc2c1-c1c(F)c(F)c(F)c(F)c1F | – | 103 nM | 17.6 | – | – |
| Cc1ccc(-c2c(C(=O)NN)[nH]c3ccc(S(N)(=O)=O)cc23)cc1 | 52 nM | 10.5 nM | – | – | – |
| Cc1ccccc1-c1c(C(=O)NN)[nH]c2ccc(S(N)(=O)=O)cc12 | 78 nM | 9.2 nM | – | – | – |
| COc1cccc(-c2c(C(=O)N[n+]3c(C)cc(C)cc3C)[nH]c3ccc(S(N)(=O)=O)cc23)c1.[O-][Cl+3]([O-])([O-])[O-] | 119 nM | 8.3 nM | – | – | – |
| Cc1cc(C)[n+](NC(=O)c2[nH]c3ccc(S(N)(=O)=O)cc3c2-c2ccc(Cl)cc2)c(C)c1.[O-][Cl+3]([O-])([O-])[O-] | 29 nM | 3.1 nM | – | – | – |
| NNC(=O)c1[nH]c2ccc(S(N)(=O)=O)cc2c1-c1ccccc1Br | 81 nM | 62 nM | – | – | – |
| Cc1cc(C)[n+](NC(=O)c2[nH]c3ccc(S(N)(=O)=O)cc3c2-c2ccccc2C)c(C)c1.[O-][Cl+3]([O-])([O-])[O-] | 62 nM | 6.5 nM | – | – | – |
| NNC(=O)c1[nH]c2ccc(S(N)(=O)=O)cc2c1-c1ccc(F)cc1 | 61 nM | 8.6 nM | – | – | – |
| Cc1cc(C)[n+](NC(=O)c2[nH]c3ccc(S(N)(=O)=O)cc3c2-c2cccc(Cl)c2)c(C)c1.[O-][Cl+3]([O-])([O-])[O-] | 31 nM | 4.4 nM | – | – | – |
| Cc1cc(C)[n+](NC(=O)c2[nH]c3ccc(S(N)(=O)=O)cc3c2-c2ccccc2)c(C)c1.[O-][Cl+3]([O-])([O-])[O-] | 42 nM | 16.5 nM | – | – | – |
| NNC(=O)c1[nH]c2ccc(S(N)(=O)=O)cc2c1-c1cccc(Cl)c1 | 52 nM | 7.4 nM | – | – | – |
| Cc1cccc(-c2c(C(=O)NN)[nH]c3ccc(S(N)(=O)=O)cc23)c1 | 43 nM | 9.1 nM | – | 5.1 | 80.2 |
| COc1cccc(-c2c(C(=O)NN)[nH]c3ccc(S(N)(=O)=O)cc23)c1 | 128 nM | 12 nM | – | – | – |
| NNC(=O)c1[nH]c2ccc(S(N)(=O)=O)cc2c1-c1ccccc1F | 47 nM | 7.9 nM | – | – | – |
| NNC(=O)c1[nH]c2ccc(S(N)(=O)=O)cc2c1-c1ccc(Br)cc1 | 94 nM | 118 nM | – | – | – |
| Cc1cc(C)[n+](NC(=O)c2[nH]c3ccc(S(N)(=O)=O)cc3c2-c2c(F)c(F)c(F)c(F)c2F)c(C)c1.[O-][Cl+3]([O-])([O-])[O-] | 5.1 nM | 60.1 nM | – | – | – |
| Cc1cc(C)[n+](NC(=O)c2[nH]c3ccc(S(N)(=O)=O)cc3c2-c2ccccc2F)c(C)c1.[O-][Cl+3]([O-])([O-])[O-] | 19 nM | 16.2 nM | – | – | – |
| NNC(=O)c1[nH]c2ccc(S(N)(=O)=O)cc2c1-c1cccc(Br)c1 | 87 nM | 93 nM | – | – | – |
| Cc1cc(C)[n+](NC(=O)c2[nH]c3ccc(S(N)(=O)=O)cc3c2-c2ccccc2Cl)c(C)c1.[O-][Cl+3]([O-])([O-])[O-] | 33 nM | 15.4 nM | – | – | – |
| NNC(=O)c1[nH]c2ccc(S(N)(=O)=O)cc2c1-c1ccc(Cl)cc1 | 55 nM | 70 nM | – | – | – |
| Cc1cc(C)[n+](NC(=O)c2[nH]c3ccc(S(N)(=O)=O)cc3c2-c2cccc(F)c2)c(C)c1.[O-][Cl+3]([O-])([O-])[O-] | 24 nM | 8.3 nM | – | – | – |
| Cc1cc(C)[n+](NC(=O)c2[nH]c3ccc(S(N)(=O)=O)cc3c2-c2ccc(F)cc2)c(C)c1.[O-][Cl+3]([O-])([O-])[O-] | 21 nM | 8.7 nM | – | – | – |
| NNC(=O)c1[nH]c2ccc(S(N)(=O)=O)cc2c1-c1ccccc1Cl | 45 nM | 8 nM | – | 4.8 | 80 |
| Cc1cc(C)[n+](NC(=O)c2[nH]c3ccc(S(N)(=O)=O)cc3c2-c2ccccc2Br)c(C)c1.[O-][Cl+3]([O-])([O-])[O-] | 45 nM | 12.1 nM | – | – | – |
| Cc1cc(C)[n+](NC(=O)c2[nH]c3ccc(S(N)(=O)=O)cc3c2-c2cccc(Br)c2)c(C)c1.[O-][Cl+3]([O-])([O-])[O-] | 48 nM | 14.3 nM | – | – | – |
| NNC(=O)c1[nH]c2ccc(S(N)(=O)=O)cc2c1-c1ccccc1 | 85 nM | 72 nM | – | – | – |
| NNC(=O)c1[nH]c2ccc(S(N)(=O)=O)cc2c1-c1cccc(F)c1 | 54 nM | 7.2 nM | – | – | – |
| Cc1cccc(-c2c(C(=O)N[n+]3c(C)cc(C)cc3C)[nH]c3ccc(S(N)(=O)=O)cc23)c1.[O-][Cl+3]([O-])([O-])[O-] | 64 nM | 6.1 nM | – | – | – |
